Test results as given in PubChem BioAssay AID248 (DTP/NCI, 2004).
Several values for one entry are separate records, joined by “and”; a condition that tells them apart may be missing. Equal entries are not always repeated. Inconclusive results and toxic doses are left out. Rule as the data show it: active = T/C of 150% or more; inactive = T/C below 125%.

Tested on: L1210 leukemia ip in BDF1 mice, survival T/C
Test: NCI In Vivo Anticancer Drug Screen. Data for tumor model L1210 Leukemia (intraperitoneal) in B6D2F1 (BDF1) mice
Details: endpoint: mean survival time, higher = longer survival
Method in brief: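 Tumor cells were implanted, animals were treated, and survival was followed. The result divides the treated measurement by the vehicle-control measurement.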

[1] = dose: 100.0 mg/kg/injection, schedule: Q01DX009 (ip), vehicle: Klucel (hydroxypropylcellulose) (HPC)
[2] = dose: 100.0 mg/kg/injection, schedule: Q04DX002 (ip), vehicle: Klucel (hydroxypropylcellulose) (HPC)
[3] = dose: 200.0 mg/kg/injection, schedule: Q04DX002 (ip), vehicle: Klucel (hydroxypropylcellulose) (HPC)
[4] = dose: 400.0 mg/kg/injection, schedule: Q04DX002 (ip), vehicle: Klucel (hydroxypropylcellulose) (HPC)
[5] = dose: 100.0 mg/kg/injection, schedule: Q01DX009 (ip), vehicle: saline
[6] = dose: 100.0 mg/kg/injection, schedule: Q04DX003 (ip), vehicle: saline
[7] = dose: 200.0 mg/kg/injection, schedule: Q01DX009 (ip), vehicle: saline
[8] = dose: 200.0 mg/kg/injection, schedule: Q04DX003 (ip), vehicle: saline
[9] = dose: 400.0 mg/kg/injection, schedule: Q01DX009 (ip), vehicle: saline
[10] = dose: 400.0 mg/kg/injection, schedule: Q04DX003 (ip), vehicle: saline
[11] = dose: 100.0 mg/kg/injection, schedule: Q01DX009 (ip), vehicle: saline with Tween-80
[12] = dose: 200.0 mg/kg/injection, schedule: Q01DX009 (ip), vehicle: saline with Tween-80
[13] = dose: 25.0 mg/kg/injection, schedule: Q01DX009 (ip), vehicle: saline with Tween-80
[14] = dose: 50.0 mg/kg/injection, schedule: Q01DX009 (ip), vehicle: saline with Tween-80
[15] = dose: 100.0 mg/kg/injection, schedule: Q04DX003 (ip), vehicle: Klucel (hydroxypropylcellulose) (HPC)
[16] = dose: 100.0 mg/kg/injection, schedule: Q01DX001 (ip), vehicle: saline
[17] = dose: 200.0 mg/kg/injection, schedule: Q01DX001 (ip), vehicle: saline
[18] = dose: 400.0 mg/kg/injection, schedule: Q01DX001 (ip), vehicle: saline

Measured: T/C

O=C(Nc1ccc(Nc2ccccc2)cc1)Nc1cc(C(F)(F)F)ccc1Cl
inactive: [1] 103 % of control | dose: 200.0 mg/kg/injection, schedule: Q01DX009 (ip), vehicle: Klucel (hydroxypropylcellulose) (HPC) 93 % of control | dose: 400.0 mg/kg/injection, schedule: Q01DX009 (ip), vehicle: Klucel (hydroxypropylcellulose) (HPC) 87 % of control

CCOc1ccccc1C=C(C#N)C#N
inactive: dose: 100.0 mg/kg/injection, schedule: Q04DX002 (ip), vehicle: saline with Tween-80 100 % of control

CCOc1ccccc1NC(=O)Nc1cccc(C(F)(F)F)c1
inactive: [2] 99 % of control | [3] 92 % of control | [4] 89 % of control

COc1ccc(CN(CCc2ccc(O)cc2)C(=O)C(F)(F)F)cc1O
inactive: dose: 100.0 mg/kg/injection, schedule: Q01DX001 (ip), vehicle: Klucel (hydroxypropylcellulose) (HPC) 91 % of control | dose: 200.0 mg/kg/injection, schedule: Q01DX001 (ip), vehicle: Klucel (hydroxypropylcellulose) (HPC) 89 % of control | dose: 400.0 mg/kg/injection, schedule: Q01DX001 (ip), vehicle: Klucel (hydroxypropylcellulose) (HPC) 87 % of control

N#Cc1cnccn1
inactive: [5] 103 % of control | [6] 93 % of control | [7] 104 % of control | [8] 100 % of control | [9] 104 % of control | [10] 93 % of control

CC(=O)OCC(OS(=O)(=O)c1ccc(C)cc1)C(OC(C)=O)C(OC(C)=O)C(COC(C)=O)OS(=O)(=O)c1ccc(C)cc1 (stereo not drawn)
inactive: dose: 50.0 mg/kg/injection, schedule: Q04DX002 (ip), vehicle: Klucel (hydroxypropylcellulose) (HPC) 90 % of control | [2] 101 % of control | [3] 101 % of control

CCOCc1c(COc2ccc(Br)cc2)n(CC)c2ccccc12
inactive: [11] 93 % of control | [12] 90 % of control | dose: 400.0 mg/kg/injection, schedule: Q01DX009 (ip), vehicle: saline with Tween-80 90 % of control

CCN(CC)C(=O)c1ccccc1
inactive: [6] 103 % of control | [8] 110 % of control | [10] 105 % of control

CC(=O)Nc1ccccc1Sc1ccc(Br)cc1[N+](=O)[O-]
inactive: dose: 75.0 mg/kg/injection, schedule: Q04DX003 (ip), vehicle: saline 91 % of control | dose: 150.0 mg/kg/injection, schedule: Q04DX003 (ip), vehicle: saline 90 % of control | dose: 300.0 mg/kg/injection, schedule: Q04DX003 (ip), vehicle: saline 87 % of control

CC[N+](C)(CC)Cc1cc(C(C)=O)c(C)o1
inactive: dose: 12.5 mg/kg/injection, schedule: Q01DX009 (ip), vehicle: saline with Tween-80 90 % of control | [13] 95 % of control | [14] 93 % of control

c1ccc(C2CC(c3ccccc3)S2)cc1 (stereo not drawn)
inactive: [15] 100 % of control | dose: 200.0 mg/kg/injection, schedule: Q04DX003 (ip), vehicle: Klucel (hydroxypropylcellulose) (HPC) 105 % of control | dose: 400.0 mg/kg/injection, schedule: Q04DX003 (ip), vehicle: Klucel (hydroxypropylcellulose) (HPC) 105 % of control

CC(C)(C)c1cc(OCC2CO2)c(C(C)(C)C)cc1OCC1CO1 (stereo not drawn)
inactive: [16] 101 % of control | [17] 101 % of control | [18] 92 % of control

N#CC1(N(O)C(=O)Nc2ccccc2)CCCCC1
inactive: [16] 93 % of control | [17] 96 % of control | [18] 91 % of control

CCCC(=O)Nc1ccc(NS(C)(=O)=O)cc1OC
inactive: [5] 103 % of control | [6] 102 % of control | [7] 100 % of control | [8] 102 % of control | [9] 102 % of control | [10] 100 % of control

COc1ccc(C)cc1NC(=O)/C=C/c1ccccc1
inactive: [2] 100 % of control | [3] 100 % of control | [4] 100 % of control

Cc1ccc(N=Nc2sc(N)nc2C)c(C)c1
inactive: dose: 75.0 mg/kg/injection, schedule: Q01DX001 (ip), vehicle: saline 97 % of control | dose: 150.0 mg/kg/injection, schedule: Q01DX001 (ip), vehicle: saline 103 % of control

CCCCCCC1c2ccccc2CC1CCCC (stereo not drawn)
inactive: dose: 50.0 mg/kg/injection, schedule: Q01DX001 (ip), vehicle: saline 102 % of control | [16] 104 % of control | [17] 102 % of control | [18] 98 % of control

CC(C)=NNC(=O)CNc1ccc(Cl)c(C(F)(F)F)c1
inactive: [2] 97 % of control | [3] 104 % of control | [4] 111 % of control

O=C(Cc1ccccc1)CC(O)(C(F)(F)F)C(F)(F)F
inactive: [11] 110 % of control | [12] 100 % of control

CC(=O)OC(CC(O)(C(F)(F)F)C(F)(F)F)C(C)(C)C (stereo not drawn)
inactive: dose: 25.0 mg/kg/injection, schedule: Q01DX009 (ip), vehicle: saline 104 % of control | dose: 50.0 mg/kg/injection, schedule: Q01DX009 (ip), vehicle: saline 102 % of control | dose: 100.0 mg/kg/injection, schedule: Q04DX003 (ip), vehicle: saline with Tween-80 98 % of control

[Br][Hg][Br].c1ccc(N=P(c2ccccc2)(c2ccccc2)c2ccccc2)cc1
inactive: dose: 9.38 mg/kg/injection, schedule: Q01DX001 (ip), vehicle: other 95 % of control | dose: 18.75 mg/kg/injection, schedule: Q01DX001 (ip), vehicle: other 95 % of control | dose: 37.5 mg/kg/injection, schedule: Q01DX001 (ip), vehicle: other 100 % of control

Cc1ccc(S(=O)(=O)N2C=Cc3ccccc3CC2)cc1
inactive: dose: 100.0 mg/kg/injection, schedule: Q01DX001 (ip), vehicle: carboxymethylcellulose (CMC) 107 % of control | dose: 200.0 mg/kg/injection, schedule: Q01DX001 (ip), vehicle: carboxymethylcellulose (CMC) 100 % of control | dose: 400.0 mg/kg/injection, schedule: Q01DX001 (ip), vehicle: carboxymethylcellulose (CMC) 112 % of control

CCO/C=C1\SC(=S)N(c2ccc(C(=O)O)cc2)C1=O
inactive: [13] 108 % of control | [14] 100 % of control | dose: 100.0 mg/kg/injection, schedule: Q01DX009 (ip), vehicle: saline sonified 97 % of control | dose: 100.0 mg/kg/injection, schedule: Q04DX003 (ip), vehicle: saline sonified 99 % of control | dose: 200.0 mg/kg/injection, schedule: Q04DX003 (ip), vehicle: saline sonified 102 % of control | dose: 400.0 mg/kg/injection, schedule: Q04DX003 (ip), vehicle: saline sonified 108 % of control

CCCCN(CCCC)CCCNC(=O)OCC
inactive: dose: 25.0 mg/kg/injection, schedule: Q01DX009 (ip), vehicle: Klucel (hydroxypropylcellulose) (HPC) 92 % of control | dose: 50.0 mg/kg/injection, schedule: Q01DX009 (ip), vehicle: Klucel (hydroxypropylcellulose) (HPC) 94 % of control | dose: 50.0 mg/kg/injection, schedule: Q04DX003 (ip), vehicle: Klucel (hydroxypropylcellulose) (HPC) 100 % of control | [1] 106 % of control and 87 % of control | [15] 103 % of control

O=C(/C=C/c1ccccc1)N/N=C/c1ccncc1
inactive: dose: 100.0 mg/kg/injection, schedule: Q04DX002 (ip), vehicle: saline 91 % of control | dose: 200.0 mg/kg/injection, schedule: Q04DX002 (ip), vehicle: saline 108 % of control | dose: 400.0 mg/kg/injection, schedule: Q04DX002 (ip), vehicle: saline 112 % of control
